The record followed here is PubChem BioAssay (NCI).

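1) Cells in 96-well plates. 2) Compound, 48 h, 5 concentrations. 3) Linear interpolation between surrounding doses. 4) Unreached endpoint = highest concentration. GI50 = concentration required for 50% inhibition of growth. TGI: total growth inhibition.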 Where only a bound is given, the exact number is not on record here.

Holding throughout (assay): inhibition of tumour cell growth, NCI panel, 48 h
Experiment [1] relates to HT29 colon.
Experiment [2] deals with RXF 393 renal.
In experiment [3] the test system is NCI/ADR-RES ovarian.
The test system of experiment [4] is T-47D breast.
For experiment [5], the system named is OVCAR-8 ovarian.
The subject of experiment [6] is SR leukemia.
Experiment [7] relates to 786-0 renal.
Experiment [8] concerns PC-3 prostate.
Experiment [9] relates to TK-10 renal.
The test system of experiment [10] is SF-539 CNS.

As for `c1ccc([P+](c2ccccc2)(c2ccccc2)c2ccc([P+](c3ccccc3)(c3ccccc3)c3ccccc3)cc2)cc1`, the TGI in experiment [1], in experiment [2], in experiment [3], in experiment [4], in experiment [5] and in experiment [6] was over 100 µM in each case. Further, the TGI in experiment [7] was over 100 µM; in experiment [8] it was over 100 µM; in experiment [9], over 100 µM; in experiment [10], 81.5 µM.
With `CC(=O)CC1(C)OC(N)=C(C#N)C1(C#N)C#N` (configuration not stated), the TGI in [1], in experiment [2], in experiment [3], in experiment [4], in [5] and in experiment [7] was over 100 µM in each case. Further, the TGI in experiment [8], in experiment [9] and in experiment [10] was over 100 µM each time.
As to `O=c1oc2ccc(Cl)cc2cc1-c1cn2ccsc2n1`, the TGI in [1] was over 100 µM; in experiment [2], over 100 µM; in [3], over 100 µM; in experiment [4], over 100 µM; in experiment [5], 96.8 µM; in experiment [6] it was over 100 µM. The TGI in [7], in experiment [8], in experiment [9] and in [10] was over 100 µM each time.
Take `COc1ccc(C=Nc2ccc(-c3nc4ccccc4[nH]3)cc2)cc1OC`: the TGI in [1], in [2], in [3], in experiment [4], in experiment [5] and in [6] was over 100 µM in each case. The TGI in [7], in [8], in experiment [9] and in experiment [10] was over 100 µM each time.
As to `CC/C(Cl)=N\OC(=O)Nc1ccc(F)cc1F`, the TGI in experiment [1] worked out at 51.2 µM; in [2], 27.7 µM; in experiment [3] it was 44.5 µM; in [4] it was 15.5 µM; in [5] it was 37.3 µM; in experiment [7], 8.77 µM. Moreover, the figures for the TGI in [8], in experiment [9] and in experiment [10] were 33.3 µM, 24.3 µM and 23.5 µM, respectively.
On to `COc1cc(-n2cc(-c3cc(O)c(C/C=C(\C)CCC=C(C)C)c(O)c3)nn2)cc2c1O[C@]1(C)CC[C@@H](O)C(C)(C)[C@H]1C2`, for which the GI50 in experiment [1] is 1.71 µM; in experiment [2], 0.0214 µM; in experiment [3], 3.51 µM; in [4], 1.34 µM; in experiment [5] it was 3.17 µM; in [6], 0.0317 µM. For the same molecule, the GI50 is 0.598 µM in experiment [8], 7.97 µM in [9] and 0.0664 µM in experiment [10]. Moreover, the TGI was 5.81 µM in experiment [1]; 0.337 µM in [2]; 68.6 µM in experiment [3]; 47.2 µM in [4]; over 66.4 µM in experiment [5]; over 100 µM in experiment [6]. In addition, the TGI in experiment [8] is over 84.3 µM; in experiment [9], over 100 µM; in [10], 1.76 µM.
Regarding `COc1ccc(C(=O)c2ccc(-n3cc(/C=C/[N+](=O)[O-])c4ccccc43)cc2)cc1`, the TGI in experiment [1] is 57.3 µM; in experiment [2] it was 10.8 µM; in experiment [3], 56.5 µM; in experiment [4], 6.41 µM; in experiment [5] it was 45.2 µM; in experiment [6], over 100 µM. The TGI in experiment [7] was found to be 11.2 µM; in experiment [8], 49.9 µM; in [9], 16.8 µM; in experiment [10], 31.3 µM.
`Cc1cc(S(=O)(=O)O)c(NC(=O)c2oc3cc(O)ccc3c(=O)c2C)cc1Cl`: the TGI in experiment [1], in [2], in [3], in experiment [4], in experiment [5] and in [7] was over 100 µM throughout. Also, the TGI in experiment [8], in experiment [9] and in experiment [10] was over 100 µM each time.
For `CCOC(=O)CCCn1cc(C(=O)OC)nn1`, the TGI in experiment [1], in [2], in [3], in [4], in [5] and in experiment [7] was over 100 µM in each case. The TGI in experiment [8], in [9] and in experiment [10] was over 100 µM in each case.
As for `O=C1CSc2nnc(CCCCCCCCc3nnc4n3NC(=O)CS4)n2N1`, the TGI in experiment [1], in [3], in experiment [4], in experiment [5], in [6] and in [7] was over 100 µM in each case. The TGI in [8] and in [10] was over 100 µM in each case.
In the case of `Nc1ncc(/C=N/O)c(NCC2(CO)CC(CCc3ccccc3)C2)n1` (configuration not stated), the TGI in [1] is 9.07 µM; in experiment [2] it was 29 µM; in experiment [3], 70.6 µM; in experiment [4] it was 17.2 µM; in experiment [5] it was 24.1 µM; in experiment [6] it was over 100 µM. The results for the TGI in [7], in experiment [8] and in experiment [10] were 37.2 µM, 26.8 µM and 29.6 µM, respectively.
As for `COC(=O)c1c(OC)cc2cc3c(c(O)c2c1C)C(=O)C1(O)C(=O)C=C(OC)C(OC(=O)CC(C)N)=C1C3=O` (configuration not stated), the TGI in [1] is 43.7 µM; in experiment [3], over 100 µM; in experiment [4] it was over 100 µM; in experiment [5], 92.9 µM; in experiment [6] it was 47.6 µM; in experiment [7], over 100 µM. For the same molecule, the TGI in [8], in experiment [9] and in [10] was over 100 µM each time.
As for `C=C[C@@](C)(/C=C/c1ccc(O)cc1)CCC=C(C)C`, the TGI in [1] is 32.8 µM; in [3], 31 µM; in experiment [4], 28.7 µM; in experiment [5], 35.2 µM; in [6], 32.1 µM; in experiment [8], 30.4 µM. Besides, the TGI in [9] was 32.3 µM.
